# According to publication PMC3625961 (Synapse (New York, N.Y.), 2011):
# Where a chain is given by its changes, count along the chain named.
# Columns and labels:
# CRF1 receptor [1] = target: T1, CRF1 receptor (Macaca mulatta, UniProt Q76LL8); format: binding, rhesus monkey
# T1 sequence (Q76LL8 24-415): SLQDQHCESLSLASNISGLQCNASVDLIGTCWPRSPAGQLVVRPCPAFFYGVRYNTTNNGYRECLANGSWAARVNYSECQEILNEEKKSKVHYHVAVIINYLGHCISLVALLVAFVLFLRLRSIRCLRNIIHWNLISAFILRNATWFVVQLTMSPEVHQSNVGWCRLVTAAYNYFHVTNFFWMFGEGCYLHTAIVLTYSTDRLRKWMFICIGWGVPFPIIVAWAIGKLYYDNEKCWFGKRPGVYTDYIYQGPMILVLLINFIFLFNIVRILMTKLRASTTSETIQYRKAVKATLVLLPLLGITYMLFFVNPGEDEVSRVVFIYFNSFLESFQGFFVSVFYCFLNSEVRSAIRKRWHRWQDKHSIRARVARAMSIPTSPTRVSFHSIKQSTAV
# CRF1 receptors = target: T2, CRF1 receptors (Rattus norvegicus, UniProt P35353); test: In vitro autoradiography competition with [125I]Sauvagine, rat frontal cortex; format: binding
# T2 sequence (P35353 24-415): T1 sequence (Q76LL8 24-415) with H6R, S9N, A13T, I16V, M153V, G163A, I209V, Y229H, H356R
# CRF2 R = CRF2 R (Rattus norvegicus, UniProt P47866); test: In vitro autoradiography competition with [125I]Sauvagine, rat choroid plexus; format: binding; details: read-out: Rat choroid plexus Ki; [125I] Sauvagine 0.1 nM; n=3
# P-gp = details: ref Kiesewetter et al., 2003; cited from earlier work
# CRF1 receptor [2] = target: T1, CRF1 receptor; test: In vitro autoradiography with radioligand; format: binding, rhesus monkey; details: saturation, ROIs in monkey prefrontal/frontal cortex; n=3
# [3] = monkey frontal cortex, [125I]o-CRH
# CRF2 R, sequence (P47866 1-431 isoform P47866-2): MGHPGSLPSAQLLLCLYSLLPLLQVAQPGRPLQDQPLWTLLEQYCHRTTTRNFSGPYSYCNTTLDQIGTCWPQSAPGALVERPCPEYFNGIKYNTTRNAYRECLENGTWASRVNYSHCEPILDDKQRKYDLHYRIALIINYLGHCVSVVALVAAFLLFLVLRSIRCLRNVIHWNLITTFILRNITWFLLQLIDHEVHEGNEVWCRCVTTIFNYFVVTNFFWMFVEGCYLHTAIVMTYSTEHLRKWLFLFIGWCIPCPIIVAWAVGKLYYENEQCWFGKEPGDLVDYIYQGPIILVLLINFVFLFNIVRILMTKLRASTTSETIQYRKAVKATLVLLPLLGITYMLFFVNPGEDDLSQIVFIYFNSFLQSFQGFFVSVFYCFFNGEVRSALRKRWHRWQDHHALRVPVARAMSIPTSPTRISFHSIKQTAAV
structure (smiles),measurement,setting,value
"COCCN(CCOC)c1nc(C)nc2c(-c3c(OC)cc(Br)cc3OC)c(C)nn12 [4-Br-BMK-152, [8-(4-bromo-2,6-dimethoxyphenyl)-2,7-dimethylpyrazolo[1,5-α][1,3,5]triazin-4-yl]-N,N-bis-(2-methoxyethyl)amine]",greater affinity compared to 3-Br-BMK,CRF1 receptor [1]; [3],70 fold
same,greater affinity compared to o-CRH,CRF1 receptor [1]; [3],4 fold
same,Ki,"CRF1 receptor [1]; read-out: Rhesus Frontal Cortex Ki, [125I]-oCRH 0.125 nM, mean ± SD, n=3",0.35 ± 0.05 nM
same,greater affinity compared to o-CRH,"CRF1 receptors; rat frontal cortex, [125I]Sauvagine",5 fold
same,Ki,"CRF1 receptors; read-out: Rat Frontal Cortex Ki, [125I] Sauvagine 0.1 nM, mean ± SD, n=3",0.15 ± 0.05 nM
same,Ki,CRF2 R,> 1000 nM
CC(=O)O[C@H]1C(=O)[C@@]2(C)[C@H]([C@H](OC(=O)c3ccccc3)[C@]3(O)C[C@H](OC(=O)[C@H](O)[C@@H](NC(=O)c4ccccc4)c4ccccc4)C(C)=C1C3(C)C)[C@]1(OC(C)=O)CO[C@@H]1C[C@@H]2O [paclitaxel],increase in P-gp KO mice compared to WT mice,P-gp,640%
CC[C@H](C)[C@H](NC(=O)[C@H](CC(=O)O)NC(=O)[C@H](CC(C)C)NC(=O)[C@H](CC(C)C)NC(=O)[C@H](CCCCN)NC(=O)[C@H](CCCNC(=N)N)NC(=O)[C@H](CC(N)=O)NC(=O)[C@H](CO)NC(=O)[C@H](Cc1c[nH]cn1)NC(=O)[C@H](C)NC(=O)[C@H](CCC(N)=O)NC(=O)[C@H](CCC(N)=O)NC(=O)[C@H](C)NC(=O)[C@H](CC(C)C)NC(=O)[C@H](CCC(N)=O)NC(=O)[C@H](CC(=O)O)NC(=O)[C@H](C)NC(=O)[C@H](CCCCN)NC(=O)[C@@H](NC(=O)[C@H](CCSC)NC(=O)[C@H](CCC(=O)O)NC(=O)[C@H](CC(C)C)NC(=O)[C@@H](NC(=O)[C@H](CCC(=O)O)NC(=O)[C@H](CCCNC(=N)N)NC(=O)[C@H](CC(C)C)NC(=O)[C@H](CC(C)C)NC(=O)[C@H](Cc1c[nH]cn1)NC(=O)[C@H](Cc1ccccc1)NC(=O)[C@@H](NC(=O)[C@H](CC(C)C)NC(=O)[C@H](CC(=O)O)NC(=O)[C@H](CC(C)C)NC(=O)[C@H](CO)NC(=O)[C@@H](NC(=O)[C@@H]1CCCN1C(=O)[C@@H]1CCCN1C(=O)[C@H](CCC(=O)O)NC(=O)[C@H](CCC(N)=O)NC(=O)[C@H](CO)NC(=O)[C@@H](N)Cc1ccc(O)c(I)c1)[C@@H](C)CC)[C@@H](C)O)C(C)C)[C@@H](C)O)C(=O)N[C@@H](C)C(N)=O [[^125I]o-CRH],Kd,CRF1 receptor [2],0.68 ± 0.22 nM
